24 molecules from ChEMBL document CHEMBL1151706, “Hetero-Diels-Alder reaction of 1,3-bis(trimethylsilyloxy)-1,3-butadienes with arylsulfonylcyanides. Synthesis and antimicrobial activity of 4-hydroxy-2-(arylsulfonyl)pyridines” (2008) can be followed below.

Values after ≈ are worked out from the molar mass of the structure shown. Active and inactive are the calls of the source. The rule behind the calls is not given here.

Holding throughout (assay type): functional
For assay [1], the system named is Candida maltosa. As to the kind of experiment: Antifungal activity against Candida maltosa SBUG 700 assessed as diameter of the inhibition zone at 1 uM/disk by disk diffusion method. On the technique in general: Agar diffusion results depend on both activity and mobility in agar.
Assay [2] has as its system Escherichia coli. As to the kind of experiment: Antibacterial activity against Escherichia coli ATCC 11229 assessed as diameter of the inhibition zone at 1 uM/disk after 4 hrs by disk diffusion method.
The subject of assay [3] is Bacillus subtilis. The assay can be described thus: Antibacterial activity against Bacillus subtilis ATCC 6051 assessed as diameter of the inhibition zone at 1 uM/disk after 4 hrs by disk diffusion method. To be noted: for zone of inhibition at 1 µM: ATCC 6051, 4 h, read-out: IZ.
For assay [4], the system named is Staphylococcus aureus. The assay can be described thus: Antibacterial activity against Staphylococcus aureus ATCC 6538 assessed as diameter of the inhibition zone at 1 uM/disk after 4 hrs by disk diffusion method. To be noted: for zone of inhibition at 1 µM: ATCC 6538, 4 h, read-out: IZ.
Assay [5] has as its system Bacillus subtilis. As to the kind of experiment: Antibacterial activity against Bacillus subtilis ATCC 6051 by dilution assay.
The subject of assay [6] is Staphylococcus aureus. As to the kind of experiment: Antibacterial activity against Staphylococcus aureus ATCC 6538 by dilution assay.

Turning to `CCOc1nc(S(=O)(=O)c2ccc(C)cc2)cc(O)c1Oc1cc(C)cc(C)c1`, the outcome in assay [1], in assay [2] and in assay [3] was inactive. In assay [4], the zone of inhibition at 1 µM was found to be 8 mm.

As to `Cc1ccc(S(=O)(=O)c2cc(O)cc(C)n2)cc1`, the result in assay [1], in assay [2], in assay [3] and in assay [4] was inactive.

A word on the MIC: it is the least concentration at which growth counts as inhibited. Read a high MIC as a need for much substance. Regarding `CC1(C)S[C@@H]2[C@H](NC(=O)[C@H](N)c3ccccc3)C(=O)N2[C@H]1C(=O)O` [AMPICILLIN], the zone of inhibition at 1 µM in assay [2] (ATCC 11229, 4 h, read-out: IZ) stood at 19 mm; in assay [3], 25 mm; in assay [4], 27 mm. Moreover, the MIC in assay [5] worked out at 11 µM (≈ 3.84 µg/mL); in assay [6], 3 µM (≈ 1.05 µg/mL).

In the case of `CC(C)Oc1cc(O)cc(S(=O)(=O)c2ccccc2)n1`, the result in assay [1], in assay [2], in assay [3] and in assay [4] was inactive.

As for `CCOc1nc(S(=O)(=O)c2ccccc2)cc(O)c1Cl`, the outcome in assay [1] and in assay [2] was inactive. The results for the zone of inhibition at 1 µM in assay [3] and in assay [4] were 11 mm and 12 mm, respectively. Moreover, the MIC in assay [5] and in assay [6] was 1590 µM (≈ 499 µg/mL) in each case.

Take `Cc1cccc(Sc2c(O)cc(S(=O)(=O)c3ccccc3)nc2C)c1`: the outcome in assay [1] and in assay [2] was inactive. The zone of inhibition at 1 µM in assay [3] was 10 mm; in assay [4] it was 13 mm. Also, the MIC in assay [5] amounted to 330 µM (≈ 123 µg/mL); in assay [6], 670 µM (≈ 249 µg/mL).

As to `Cc1ccc(S(=O)(=O)c2cc(O)c(Oc3cccc(C)c3)c(C)n2)cc1`, the outcome in assay [1], in assay [2], in assay [3] and in assay [4] was inactive.

Take `COCc1cc(O)cc(S(=O)(=O)c2ccc(C)cc2)n1`: the outcome in assay [1], in assay [2], in assay [3] and in assay [4] was inactive.

As to `COc1nc(S(=O)(=O)c2ccccc2)cc(O)c1Sc1ccccc1`, the result in assay [1], in assay [2] and in assay [4] was inactive. Also, the zone of inhibition at 1 µM in assay [3] is 10 mm.

Consider NYSTATIN, for which the inhibition zone (IZ) in assay [1] is 28 mm.

As to `CCOc1cc(O)cc(S(=O)(=O)c2ccc(C)cc2)n1`, the result in assay [1], in assay [2], in assay [3] and in assay [4] was inactive.

In the case of `COCCOc1cc(O)cc(S(=O)(=O)c2ccc(C)cc2)n1`, the result in assay [1], in assay [2], in assay [3] and in assay [4] was inactive.

For `CCOc1cc(O)cc(S(=O)(=O)c2ccccc2)n1`, the outcome in assay [1], in assay [2], in assay [3] and in assay [4] was inactive.

Take `CCOc1nc(S(=O)(=O)c2ccc(C)cc2)cc(O)c1F`: the result in assay [1], in assay [2] and in assay [4] was inactive. In addition, the zone of inhibition at 1 µM in assay [3] is 11 mm.

Turning to `CCOc1nc(S(=O)(=O)c2ccccc2)cc(O)c1F`, the outcome in assay [1] and in assay [2] was inactive. The figures for the zone of inhibition at 1 µM in assay [3] and in assay [4] were 11 mm and 12 mm, respectively. The results for the MIC in assay [5] and in assay [6] were 1680 µM (≈ 499 µg/mL) and 3360 µM (≈ 999 µg/mL), respectively.

With `Cc1ccc(Sc2c(O)cc(S(=O)(=O)c3ccc(C)cc3)nc2C)cc1`, the outcome in assay [1] and in assay [2] was inactive. Moreover, the zone of inhibition at 1 µM in assay [3] turned out to be 10 mm; in assay [4], 8 mm. Besides, the MIC in assay [5] amounted to 160 µM (≈ 61.7 µg/mL); in assay [6], 320 µM (≈ 123 µg/mL).

Turning to `COc1cc(O)cc(S(=O)(=O)c2ccccc2)n1`, the result in assay [1], in assay [2], in assay [3] and in assay [4] was inactive.

For the molecule `CCOc1nc(S(=O)(=O)c2ccccc2)cc(O)c1Oc1cc(C)cc(C)c1`, the result in assay [1], in assay [2], in assay [3] and in assay [4] was inactive.

Turning to `CCc1c(O)cc(S(=O)(=O)c2ccccc2)nc1OC`, the outcome in assay [1], in assay [2], in assay [3] and in assay [4] was inactive.

With `COc1cc(O)cc(S(=O)(=O)c2ccc(C)cc2)n1`, the outcome in assay [1], in assay [2] and in assay [3] was inactive. In assay [4], the zone of inhibition at 1 µM came out at 10 mm.

As to `Cc1nc(S(=O)(=O)c2ccccc2)cc(O)c1Sc1ccccc1`, the outcome in assay [1] and in assay [2] was inactive. Moreover, the zone of inhibition at 1 µM in assay [3] was 10 mm; in assay [4], 9 mm.

As for `CCOc1nc(S(=O)(=O)c2ccc(C)cc2)cc(O)c1Cl`, the zone of inhibition at 1 µM in assay [1] (read-out: IZ) was 9 mm; in assay [3], 10 mm; in assay [4] it was 13 mm. Moreover, the outcome in assay [2] was inactive. Further, the MIC was 1520 µM (≈ 498 µg/mL) in assay [5] and 1530 µM (≈ 502 µg/mL) in assay [6].

On to `Cc1ccc(S(=O)(=O)c2cc(O)c(Sc3ccccc3)c(C)n2)cc1`, for which the result in assay [1], in assay [2] and in assay [4] was inactive. The zone of inhibition at 1 µM in assay [3] was determined as 10 mm. Besides, the figures for the MIC in assay [5] and in assay [6] were 340 µM (≈ 126 µg/mL) and 670 µM (≈ 249 µg/mL), respectively.

Regarding `Cc1ccc(Oc2c(O)cc(S(=O)(=O)c3ccc(C)cc3)nc2C)cc1`, the result in assay [1] and in assay [2] was inactive. The zone of inhibition at 1 µM was found to be 7 mm in assay [3] and 8 mm in assay [4].
